# Data published in US20250074890A1, “CYANOPYRIDINE AND CYANOPYRIMIDINE BCL6 DEGRADERS” (DANA-FARBER CANCER INSTITUTE, INC., priority 2021, published 2025).
# Target: T1, BCL6 (Homo sapiens, UniProt P41182)
# T1 construct: Endogenous BCL6 was tagged with the 11-amino acid SmBiT through CRISPR/Cas9 gene editing; endogenous in cells; host or cells: Su-DHL-4 (CRISPR/Cas9 knock-in, single cell clone)
# Assay: HiBiT cellular degradation assay in Su-DHL-4 cells
# Format: cell-based
# Settings: concentration to reach 50% degradation of endogenous SmBiT-tagged BCL6, 24 hours of compound treatment
# Protocol: DC50 (concentration to reach 50% degradation) values were determined from a cellular degradation assay (HiBiT, Promega™) in Su-DHL-4 cells (Table 1). Endogenous BCL6 was tagged with the 11-amino acid SmBiT through CRISPR/Cas9 gene editing and single cell clone selection. After 24 hours of compound treatment, cells were lysed and incubated with LgBiT protein to reconstitute intact nanoluciferase. Substrate was then added and relative luciferase units were measured. Degradation levels for each treatment were taken as a percentage compared to the control, 100% DMSO (Prism).
row,DC50 [nM],Structure (SMILES)
1,28,"C[C@@H]1CN(c2nc(Nc3ccc4c(c3)n(CCC(C)(C)O)c(=O)n4C)c(Cl)cc2C#N)C[C@H](O)[C@@H]1F [Compound 50, 5-chloro-2-((3S,4R,5R)-4-fluoro-3-hydroxy-5-methylpiperidin-1-yl)-6-((3-(3-hydroxy-3-methylbutyl)-1-methyl-2-oxo-2,3-dihydro-1H-benzo[d]imidazol-5-yl)amino)nicotinonitrile]"
2,> 400,"CNC(=O)COc1cc2cc(Nc3nc(N4C[C@@H](C)C(F)(F)[C@@H](C)C4)c(C#N)cc3Cl)ccc2nc1OCC1COC1 [Compound 58, 2-((6-((3-chloro-5-cyano-6-((3R,5S)-4,4-difluoro-3,5-dimethylpiperidin-1-yl)pyridin-2-yl)amino)-2-(oxetan-3-ylmethoxy)quinolin-3-yl)oxy)-N-methylacetamide]"
3,8,"CNC(=O)COc1cc2cc(Nc3nc(N4C[C@@H](CCO)C(F)(F)[C@@H](C)C4)c(C#N)cc3Cl)ccc2n(C)c1=O [Compound 62, 2-((6-((3-chloro-5-cyano-6-((3R,5S)-4,4-difluoro-3-(2-hydroxyethyl)-5-methylpiperidin-1-yl)pyridin-2-yl)amino)-1-methyl-2-oxo-1,2-dihydroquinolin-3-yl)oxy)-N-methylacetamide]"
4,6,"CNC(=O)COc1cc2cc(Nc3nc(N4C[C@@H](C)[C@@H](F)[C@@H](C)C4)c(C#N)cc3Cl)ccc2n(CCN)c1=O [Compound 66, 2-((1-(2-Aminoethyl)-6-((3-chloro-5-cyano-6-((3S,4S,5R)-4-fluoro-3,5-dimethylpiperidin-1-yl)pyridin-2-yl)amino)-2-oxo-1,2-dihydroquinolin-3-yl)oxy)-N-methylacetamide]"
5,4,"CNC(=O)COc1cc2cc(Nc3nc(N4C[C@@H](C)C(F)[C@@H](C)C4)c(C#N)cc3Cl)ccc2n(CCN2CCOCC2)c1=O (stereo partly drawn) [Compound 68, 2-[[6-[[3-Chloro-5-cyano-6-[(3R,5S)-4-fluoro-3,5-dimethyl-1-piperidyl]-2-pyridyl]amino]-1-(2-morpholinoethyl)-2-oxo-3-quinolyl]oxy]-N-methyl-acetamide]"
6,15,"CNC(=O)COc1cc2cc(Nc3nc(N4C[C@@H](C)[C@@H](F)[C@@H](C)C4)c(C#N)cc3Cl)ccc2n(CCCN)c1=O [Compound 69, 2-((1-(3-Aminopropyl)-6-((3-chloro-5-cyano-6-((3S,4S,5R)-4-fluoro-3,5-dimethylpiperidin-1-yl)pyridin-2-yl)amino)-2-oxo-1,2-dihydroquinolin-3-yl)oxy)-N-methylacetamide]"
7,> 400,"C[C@@H]1CN(c2nc(Nc3ccc4c(c3)cc(OC[C@H]3CNCCO3)c(=O)n4C)c(Cl)cc2C#N)C[C@H](C)[C@@H]1F [Compound 71, 5-Chloro-2-((3S,4S,5R)-4-fluoro-3,5-dimethylpiperidin-1-yl)-6-((1-methyl-3-((R)-morpholin-2-ylmethoxy)-2-oxo-1,2-dihydroquinolin-6-yl)amino)nicotinonitrile]"

# The next lines start with the molecule.
row,Structure (SMILES),DC50 [nM]
1,"C[C@H]1CN(c2nc(Nc3ccc4c(c3)n(CCC(C)(C)O)c(=O)n4C)c(Cl)cc2C#N)C[C@@H](O)[C@H]1F [Compound 51, 5-chloro-2-((3R,4S,5S)-4-fluoro-3-hydroxy-5-methylpiperidin-1-yl)-6-((3-(3-hydroxy-3-methylbutyl)-1-methyl-2-oxo-2,3-dihydro-1H-benzo[d]imidazol-5-yl)amino)nicotinonitrile]",> 400
2,"C[C@@H]1CN(c2nc(Nc3ccc4c(c3)n(CCC(C)(C)O)c(=O)n4C)c(F)cc2C#N)C[C@H](O)[C@@H]1F [Compound 52, 5-Fluoro-2-((3S,4R,5R)-4-fluoro-3-hydroxy-5-methylpiperidin-1-yl)-6-((3-(3-hydroxy-3-methylbutyl)-1-methyl-2-oxo-2,3-dihydro-1H-benzo[d]imidazol-5-yl)amino)nicotinonitrile]",17
3,"C[C@H]1CN(c2nc(Nc3ccc4c(c3)n(CCC(C)(C)O)c(=O)n4C)c(F)cc2C#N)C[C@@H](O)[C@H]1F [Compound 53, 5-Fluoro-2-((3R,4S,5S)-4-fluoro-3-hydroxy-5-methylpiperidin-1-yl)-6-((3-(3-hydroxy-3-methylbutyl)-1-methyl-2-oxo-2,3-dihydro-1H-benzo[d]imidazol-5-yl)amino)nicotinonitrile]",> 400
4,"C[C@H](O)CCn1c(=O)n(C)c2ccc(Nc3nc(N4C[C@@H](C)[C@@H](F)[C@@H](C)C4)c(C#N)cc3F)cc21 [Compound 54, 5-Fluoro-2-((3S,4R,5R)-4-fluoro-3,5-dimethylpiperidin-1-yl)-6-((3-((S)-3-hydroxybutyl)-1-methyl-2-oxo-2,3-dihydro-1H-benzo[d]imidazol-5-yl)amino)nicotinonitrile]",38
5,"C[C@@H]1CN(c2nc(Nc3ccc4c(c3)n(CC[C@@H](C)O)c(=O)n4C)c(F)cc2C#N)C[C@H](C)[C@@H]1F [Compound 55, 5-Fluoro-2-((3S,4S,5R)-4-fluoro-3,5-dimethylpiperidin-1-yl)-6-((3-((R)-3-hydroxybutyl)-1-methyl-2-oxo-2,3-dihydro-1H-benzo[d]imidazol-5-yl)amino)nicotinonitrile]",33
6,"CC(O)CCn1c(=O)n(C)c2ccc(Nc3nc(N4C[C@@H](CCO)[C@H](F)[C@@H](C)C4)c(C#N)cc3F)cc21 (stereo partly drawn) [Compound 56, 5-fluoro-2-[(3R,4R,5S)-4-fluoro-3-(2-hydroxyethyl)-5-methyl-1-piperidyl]-6-[[3-(3-hydroxybutyl)-1-methyl-2-oxo-benzimidazol-5-yl]amino]pyridine-3-carbonitrile]",> 400
7,"CC(O)CCn1c(=O)n(C)c2ccc(Nc3nc(N4C[C@H](CCO)[C@@H](F)[C@H](C)C4)c(C#N)cc3F)cc21 (stereo partly drawn) [Compound 57, 5-fluoro-2-[(3S,4S,5R)-4-fluoro-3-(2-hydroxyethyl)-5-methyl-1-piperidyl]-6-[[3-(3-hydroxybutyl)-1-methyl-2-oxo-benzimidazol-5-yl]amino]pyridine-3-carbonitrile]",> 400
8,"C[C@@H]1CN(c2nc(Nc3ccc4c(c3)n(CCC3(O)CC3)c(=O)n4C)c(Cl)cc2C#N)C[C@H](N)C1(F)F [Compound 59, 2-((3S,5R)-3-Amino-4,4-difluoro-5-methylpiperidin-1-yl)-5-chloro-6-((3-(2-(1-hydroxycyclopropyl)ethyl)-1-methyl-2-oxo-2,3-dihydro-1H-benzo[d]imidazol-5-yl)amino)nicotinonitrile]",48
9,"C[C@H]1CN(c2nc(Nc3ccc4c(c3)n(C[C@@H]3COC(=O)N3)c(=O)n4C)c(F)cc2C#N)C[C@@H](N)C1(F)F [Compound 60, 2-[(3R,5S)-3-Amino-4,4-difluoro-5-methyl-1-piperidyl]-5-fluoro-6-[[1-methyl-2-oxo-3-[[(R)-2-oxooxazolidin-4-yl]methyl]benzimidazol-5-yl]amino]pyridine-3-carbonitrile]",> 400
10,"C[C@H]1CN(c2nc(Nc3ccc4c(c3)n(C[C@H]3COC(=O)N3)c(=O)n4C)c(F)cc2C#N)C[C@@H](N)C1(F)F [Compound 61, 2-((3R,5S)-3-amino-4,4-difluoro-5-methylpiperidin-1-yl)-5-fluoro-6-((1-methyl-2-oxo-3-(((S)-2-oxooxazolidin-4-yl)methyl)-2,3-dihydro-1H-benzo[d]imidazol-5-yl)amino)nicotinonitrile]",> 400
11,"CNC(=O)COc1cc2cc(Nc3nc(N4C[C@H](CCO)C(F)(F)[C@H](C)C4)c(C#N)cc3Cl)ccc2n(C)c1=O [Compound 63, 2-((6-((3-chloro-5-cyano-6-((3S,5R)-4,4-difluoro-3-(2-hydroxyethyl)-5-methylpiperidin-1-yl)pyridin-2-yl)amino)-1-methyl-2-oxo-1,2-dihydroquinolin-3-yl)oxy)-N-methylacetamide]",39
12,"CNC(=O)COc1cc2cc(Nc3nc(N4C[C@@H](C)[C@H](F)[C@@H](C)C4)c(C#N)cc3Cl)ccc2n(C)c1=O [Compound 64, 2-((6-((3-chloro-5-cyano-6-((3R,4r,5S)-4-fluoro-3,5-dimethylpiperidin-1-yl)pyridin-2-yl)amino)-1-methyl-2-oxo-1,2-dihydroquinolin-3-yl)oxy)-N-methylacetamide]",7
13,"CNC(=O)COc1cc2cc(Nc3nc(N4C[C@@H](C)C(F)(F)[C@@H](C)C4)c(C#N)cc3Cl)ccc2n(CC2CNC2)c1=O [Compound 65, 2-((1-(Azetidin-3-ylmethyl)-6-((3-chloro-5-cyano-6-((3R,5S)-4,4-difluoro-3,5-dimethylpiperidin-1-yl)pyridin-2-yl)amino)-2-oxo-1,2-dihydroquinolin-3-yl)oxy)-N-methylacetamide]",56
14,"CNCC(O)Cn1c(=O)c(OCC(=O)NC)cc2cc(Nc3nc(N4C[C@@H](C)C(F)[C@@H](C)C4)c(C#N)cc3Cl)ccc21 (stereo partly drawn) [Compound 67, 2-((6-((3-Chloro-5-cyano-6-((3S,4S,5R)-4-fluoro-3,5-dimethylpiperidin-1-yl)pyridin-2-yl)amino)-1-(2-hydroxy-3-(methylamino)propyl)-2-oxo-1,2-dihydroquinolin-3-yl)oxy)-N-methylacetamide]",4
15,"C[C@@H]1CN(c2nc(Nc3ccc4c(c3)cc(OC[C@@H]3CNCCO3)c(=O)n4C)c(Cl)cc2C#N)C[C@H](C)[C@@H]1F [Compound 70, 5-Chloro-2-((3S,4S,5R)-4-fluoro-3,5-dimethylpiperidin-1-yl)-6-((1-methyl-3-((S)-morpholin-2-ylmethoxy)-2-oxo-1,2-dihydroquinolin-6-yl)amino)nicotinonitrile]",> 400
16,"CNC(=O)COc1cc2cc(Nc3nc(N4C[C@@H](C)[C@@H](F)[C@@H](C)C4)c(C#N)cc3Cl)ccc2n(CCN(C)C)c1=O [Compound 72, 2-((6-((3-Chloro-5-cyano-6-((3S,4S,5R)-4-fluoro-3,5-dimethylpiperidin-1-yl)pyridin-2-yl)amino)-1-(2-(dimethylamino)ethyl)-2-oxo-1,2-dihydroquinolin-3-yl)oxy)-N-methylacetamide]",2
